{"source": "paper PMC4920590", "about": "“GPR142 Controls Tryptophan-Induced Insulin and Incretin Hormone Secretion to Improve Glucose Metabolism” (PLoS ONE, 2016)", "origin": "cited, not measured here", "test_system": "Calcium-sensing receptor (CaSR)", "set-up": "method as in PMID 24812056", "conditions": "rats; cited from earlier work"}
{"compound": "C[C@@H](NCCCc1cccc(C(F)(F)F)c1)c1cccc2ccccc12", "note": "[Cinacalcet]", "values": [{"measurement": "glucose", "value": "lower glucose"}]}
